Source: US9120789B2, “1-(5-tert-butyl-2-phenyl-2H-pyrazol-3-yl)-3-[2-fluoro-4-(1-methyl-2-oxo-2,3-dihydro-1H-imidazo[4,5-b]pyridin-7-yloxy)-phenyl]-urea and related compounds and their use in therapy” (CANCER RESEARCH TECHNOLOGY LIMITED, priority 2010, dated 2015)
pIC50: −log10 of the molar value.

Key:
B-RAF = B-RAF (Homo sapiens, UniProt P15056); assay: Assay A - DELFIA kinase assay; type: biochemical; settings: 100 μM ATP; mean of usually three assays; read-out: Assay A BRAF IC50
Method: Biological Methods—Assay A—DELFIA Kinase Assay
Compounds were assessed by a kinase assay performed according to the following protocol.
The following reagents were prepared:
DELFIA Kinase Buffer (DKB):
DKB1 (DKB with B-RAF and MEK Protein):
Combine 4950 μL of DKB and 50 μL of 2.5 mg/mL GST-MEK stock (to give 1 mg of MEK per 40 μL). Then add 22.5 μL of B-RAF to give ˜0.2 μL of B-RAF per 40 μL.
DKB2 (DKB with MEK Protein):
Combine 4950 μL of DKB and 50 μL of 2.5 mg/mL GST-MEK stock (to give […] of MEK per 40 μL). Use 500 μL of this for the blow out (BO) and the empty vector (EV) control.
100 mM stock, dilute to 500 μM to give 100 μM final concentration in assay.
Inhibitors (Test Compounds):
Phospho-MEK1/2 CST #9121S diluted 1:1000 in DELFIA assay buffer (AB). Pre-incubate antibody in the AB for 30 minutes at room temperature prior to use.
Anti-rabbit-Eur labelled secondary Perkin Elmer #AD0105 diluted 1:1000 in DELFIA assay buffer (AB). Pre-incubate antibody in the AB for 30 minutes at room temperature prior to use. (Primary and secondary antibodies were incubated together.)
DELFIA assay buffer Perkin Elmer #4002-0010.
DELFIA enhancement solution Perkin Elmer #4001-0010.
96 well glutathione-coated black plate Perbio #15340.
1. Preblock wells with 5% milk in TBS for 1 hour.
2. Wash wells 3× with 200 μL TBS.
3. Plate out 40 μL of DKB1 for all inhibitors (test compounds), DMSO control, and optionally other control compounds.
4. Plate out 40 μL of DKB2 for BO and EV wells.
5. Add inhibitors (test compounds) at 0.5 μL per well according to desired plate layout.
6. Add 0.5 μL DMSO to vehicle control wells.
7. Add 2 μL of B-RAF to BO and EV wells.
8. Pre-incubate with inhibitors (test compounds) for 10 minutes at room temperature with shaking.
9. Add 10 μL of 500 μM ATP stock, in DKB, to give 100 μM assay concentration.
10. Seal plates with TopSeal and incubate at room temperature with shaking for 45 minutes.
11. Wash plates 3× with 200 μL 0.1% Tween20/Water to terminate reaction.
12. Add 50 μL per well of antibody mix and incubate for 1 hour at room temperature with shaking.
13. Wash plates 3× with 200 μL 0.1% Tween20/Water.
14. Add 100 μL DELFIA enhancement solution per well, cover in foil, and incubate at room temperature for 30 minutes with shaking.
15. Read on Victor using Europium protocol.
(§1) Values for the blank (Empty Vector) are subtracted from all values. The DMSO controls are set as 100% activity and assay points (the response) are calculated as a percentage of the DMSO control. Data are plotted using Graphpad Prism software and a non-linear regression line is calculated using a variable slope sigmoidal dose-response equation: Y=Bottom+[Top−Bottom]/[1+10^((Log EC50−X)*HillSlope)] where X is the logarithm of concentration and Y is the response. The IC50 generated by this procedure is the concentration of the drug that produces a percentage control fluorescence value midway between the saturation, and zero-effect plateaus. Three independent assays are usually performed and the mean IC50 is reported. Biological Methods—Assay B—Cell Based Phosho-ERK Assay

[1] = test system: pERK in mutant BRAF WM266.4 cells; assay: Assay B - cell based phospho-ERK assay; settings: Homo sapiens, WM 266-4, 6 hours incubation
Method: as §1
Compounds were assessed using a cell-based assay which was performed according to the following protocol.
Plate out 16,000 mutant BRAF WM266.4 cells/well in 99 μL medium in a 96-well plate.
1. Add 1 μL inhibitor (test compound) to the cells (total […]).
2. Incubate the cells with test compound for 6 hours at 37° C.
3. Aspirate off the solution from all of the wells.
4. Fixate the cells with 100 μL 4% formaldehyde/0.25% Triton X-100 PBS per well.
5. Incubate the plate for 1 hour at 4° C.
6. Aspirate off the fixing solution and add 300 μL TBS per well.
7. Leave the plate overnight at 4° C.
1. Wash the plate 2× with 200 μL PBS per well.
2. Block with 100 μL 5% dried milk in TBS.
3. Incubate the plate for 20 minutes at 37° C.
4. Wash the plate 2× with 0.1% tween/H2O.
5. Add 50 μL of 3 μg/mL primary antibody pERK (Sigma M8159), diluted in 5% milk powder/TBS, to each well.
6. Incubate the plate for 2 hours at 37° C.
7. Wash the plate 3× with 0.1% tween/H2O.
8. Add 50 μL of 0.45 μg/mL secondary Europium-labelled anti-mouse antibody (Perkin Elmer) to each well.
9. Incubate the plate for 1 hour at 37° C.
10. Wash the plate 3× with 0.1% tween/H2O.
11. Add 100 μL enhancement solution (Perkin Elmer) to each well.
12. Leave the plate for approximately 10 minutes at room temperature before gently shaking the plate.
13. Read Europium Time Resolved Fluorescence in Victor2.
14. Wash the plate 2× with 0.1% tween/H2O.
15. Measure the protein concentration with BCA (Sigma) by adding 200 μL of solution per well.
16. Incubate the plate for 30 minutes at 37° C.
17. Read absorbance levels at 570 nm in a plate reader.
Note that Europium counts are normalised for protein levels by dividing counts by absorbance.
as §1, with “blank (no cells)” for “blank (Empty Vector)”, “the response).” for “the response.”, “Methods—Assay C—SRB Cell Proliferation” for “Methods—Assay B—Cell Based Phosho-ERK”, “Assay (SRB GI50)” for “Assay”

Chain of B-RAF (P15056 whole entry): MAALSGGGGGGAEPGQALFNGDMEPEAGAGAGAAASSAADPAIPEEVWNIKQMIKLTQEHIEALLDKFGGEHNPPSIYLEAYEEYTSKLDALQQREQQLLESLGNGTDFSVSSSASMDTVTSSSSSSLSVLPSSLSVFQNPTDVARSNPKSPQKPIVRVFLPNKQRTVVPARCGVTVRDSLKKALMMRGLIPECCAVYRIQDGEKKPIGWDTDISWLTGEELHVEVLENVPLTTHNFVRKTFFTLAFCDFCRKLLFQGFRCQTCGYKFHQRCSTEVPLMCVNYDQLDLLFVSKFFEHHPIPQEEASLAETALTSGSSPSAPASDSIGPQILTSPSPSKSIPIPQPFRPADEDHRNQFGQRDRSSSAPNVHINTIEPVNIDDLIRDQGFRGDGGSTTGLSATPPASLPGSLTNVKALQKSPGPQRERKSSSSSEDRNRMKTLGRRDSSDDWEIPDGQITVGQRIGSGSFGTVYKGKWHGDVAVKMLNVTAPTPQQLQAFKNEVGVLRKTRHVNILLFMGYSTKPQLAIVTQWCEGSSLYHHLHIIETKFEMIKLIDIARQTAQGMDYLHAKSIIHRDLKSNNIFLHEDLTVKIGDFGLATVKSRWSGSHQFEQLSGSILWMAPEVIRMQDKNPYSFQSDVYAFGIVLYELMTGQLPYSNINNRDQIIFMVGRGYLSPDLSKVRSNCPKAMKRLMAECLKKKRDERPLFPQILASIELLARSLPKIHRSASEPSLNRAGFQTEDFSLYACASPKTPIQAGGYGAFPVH

Row | SMILES | pIC50 (B-RAF) | pIC50 [1]
1 | Cc1ccc(-n2nc(C(C)(C)C)cc2NC(=O)Nc2ccc(Oc3ccnc4[nH]c(=O)n(C)c34)c3ccccc23)cc1 [BB-02, 1-(1-N-p-tolyl-3-tert-butyl-pyrazol-5-yl)-3-(4-(2-oxo-2,3-dihydro-1-N-methyl-1H-imidazo[4,5-b]pyridin-7-yl-oxy)naphthalen-1-yl)urea] | 5.64 | 7.59
2 | Cn1c(=O)[nH]c2nccc(Oc3ccc(NC(=O)Nc4cc(C(C)(C)C)nn4-c4ccccc4)c(F)c3)c21 [AA-01, 1-(3-Tert-butyl-1-phenyl-1H-pyrazol-5-yl)-3-(2-fluoro-4-(1-N-methyl-2-oxo-2,3-dihydro-1H-imidazo[4,5-b]pyridin-7-yloxy)phenyl)urea] | 6.57 | 6.59
3 | Cn1c(=O)[nH]c2nccc(Oc3ccc(NC(=O)Nc4cc(C(C)(C)C)nn4-c4ccccc4)c4ccccc34)c21 [BB-01, 1-(3-Tert-butyl-1-phenyl-1H-pyrazol-5-yl)-3-(4-(1-methyl-2-oxo-2,3-dihydro-1H-imidazo[4,5-b]pyridin-7-yloxy)naphthalen-1-yl)urea] | 6.60 | 7.72

The next lines start with the values.

Row | pIC50 (B-RAF) | pIC50 [1] | SMILES
4 | 6.70 | 7.05 | Cc1ccc(-n2nc(C(C)(C)C)cc2NC(=O)Nc2ccc(Oc3ccnc4[nH]c(=O)n(C)c34)cc2)cc1 [XX-02, 1-(1-N-p-tolyl-3-tert-butyl-pyrazol-5-yl)-3-(4-(2-oxo-2,3-dihydro-1-N-methyl-1H-imidazo[4,5-b]pyridin-7-yl-oxy)phenyl)urea]
5 | 6.62 | 6.70 | CC(C)(C)c1cc(NC(=O)Nc2ccc(Oc3ccnc4[nH]c(=O)[nH]c34)cc2)n(-c2ccc(F)cc2)n1 [XX-04, 1-[5-tert-Butyl-2-(4-fluoro-phenyl)-2H-pyrazol-3-yl]-3-[4-(2-oxo-2,3-dihydro-1H-imidazo[4,5-b]pyridin-7-yloxy)-phenyl]urea]
6 | 7.03 | 6.21 | CC(C)(C)c1cc(NC(=O)Nc2ccc(Oc3ccnc4[nH]c(=O)[nH]c34)cc2)n(-c2ccccc2)n1 [XX-01, 1-(5-Tert-butyl-2-phenyl-2H-pyrazol-3-yl)-3-[4-(2-oxo-2,3-dihydro-1H-imidazo[4,5-b]pyridin-7-yloxy)-phenyl]-urea]
7 | 5.96 | 6.92 | Cn1c(=O)n(C)c2c(Oc3ccc(NC(=O)Nc4cc(C(C)(C)C)nn4-c4ccccc4)c(F)c3)ccnc21 [XX-03, 1-(3-Tert-butyl-1-phenyl-1H-pyrazol-5-yl)-3-(4-(1,3-dimethyl-2-oxo-2,3-dihydro-1H-imidazo[4,5-b]pyridin-7-yloxy)-2-fluorophenyl)urea]
